According to US7354737B2, “Biomolecule transduction motif Sim-2-BTM and the use thereof” (ForHumanTech Co., Ltd., priority 2002, dated 2008):

Columns and labels:
[1] = test system: Streptozotocin-Induced diabetic mice; assay: Blood glucose level lowering in Streptozotocin-Induced diabetic mice; type: in vivo; details: IP injection (1-10 mM)
Protocol: Blood glucose level lowering was examined using Sim-2-insulin and Sim-2-insulin-PR in the Example 13 with Streptozotocin-Induced diabetic mice. After 3 (three) days of abstinence, STZ (Sigma Chemical Co, St Louis, USA) (60 mg/kg) were […]. Insulin dependent diabetic mice were defined having 20 mmol/L or more blood glucose level together with other diabetic syndrome such as polyurea etc. All the in vivo studies were carried out after 2 weeks from the induction of diabetes. Recombinant insulin alone, Sim-2-insulin and Sim-2-insulin-PR in the Example 13 were, respectively, administered to the mice by IP injection (1-10 mM), and the blood glucose levels in the mice were monitored. In order to analyze the level of blood glucose, about 0.2 ml of blood was collected from each of the mice after anesthetizing them, and then the blood was subject to centrifuge at 13,000 rpm for 3 min. Next, about […] of serum was added to 1.5 ml of glucose kit agent (BiosystemSA, Barcelona, Spain) and the mixture was incubated at 37° C. for 10 min in water-bath. The level of blood glucose was detected with blood glucose analyzer (Quik-Lab, Ames, Miles Inc. Elkart, Ind., USA).

Jurkat T cells = assay: Transduction of insulin fusion proteins, detected using mAb to insulin; type: cell-based; details: detected with mAb to insulin
Source text: A fusion protein of Sim-2 BTM and biologically active functional regulatory protein, which was expressed and purified from bacteria, was reformed so as to have natural folding structure and functions. Specifically, the fusion protein isolated and purified from bacteria was transferred again into CHO (Chinese hamster ovary) cells, and then the fusion protein, which had complete folding structure and functions found in natural state, was isolated and purified. As for purified 2 (two) types of fusion proteins, biological activity regulating capabilities were examined. For this examination, an expression vector pSim-2-insulin was designed in order to prepare fusion protein between Sim-2 BTM and human insulin. In order to make this expression vector, a 5′ primer of SEQ. ID No.:17 comprising nucleic acid sequence of Xba I restriction enzyme, nucleic acid sequence of Sim-2 BTM and N-terminal nucleic acid sequence of human insulin, and a 3′ primer of SEQ. ID No.:18 comprising nucleic acid sequence of Hind m and C-terminal nucleic acid sequence of human insulin were prepared. Then, PCR amplification was carried out using human pancreas beta cells prepared in our laboratory, as a template, and using the primers above mentioned. […] Following the treatment, the transduction level of insulin into the cells was detected using mAb to the insulin and was compared.

[2] = test system: HUVEC, HeLa, 293 and Jurkat cells; assay: Transduction of fusion protein across cell membrane, β-galactosidase staining and microscopy; type: cell-based; details: 0.5 μM, 30 min, 37° C., HeLa, 293, Jurkat cells
Protocol: HUVEC (ATCC:CRL-1730) (2×10^5), HeLa (ATCC:CCL-2) (2×10^5), and 293 (ATCC:CRL-1573) (2×10^5), which were incubated in 10% FBS (Fetal Bovine Serum) of DMEM, were respectively transferred to Lab-tek II chamber slides. Jurkat cells (ATCC:CRL-10915) (2×10^5) incubated in 10% FBS RPMI were transferred to poly-L-lysin coated slide. Each of the slides was treated with the purified 0.5 μM of Sim-2-β-galactosidase for 30 min at 37° C. in 5% CO2 incubator. And the supernatants were removed from the slides. The incubation mixtures were washed using ice-cold PBS four times and then were solidified with 2% formaldehyde solution for 10 min. After removing the solidified solutions, the mixtures were washed again using ice-cold PBS four times. Subsequently, the respective mixtures were treated with 700 μl of β-galactosidase staining solution (Roche. Co.) for 45 min at 37° C. in 5% CO2 incubator. Following the staining, the mixtures were washed with ice-cold PBS four times after removing the supernatants. Next, the mixtures were mounted with 70% glycerol on the microscope slides.

Substance	blood glucose level, After administration ([1]; after administration)	blood glucose level, Before administration ([1]; before administration)	lowering of blood glucose level ([1]; from Table 3)	transduction level of insulin into Jurkat T cells (Jurkat T cells)	transduction across the cell membranes (β-galactosidase staining) [2]
Recombinant insulin: recombinant insulin not fused to Sim-2 BTM	2320	5600	50%	almost none	–
β-gal: β-galactosidase reporter protein not fused to Sim-2	–	–	–	–	not transduced at all
